Results: ChEMBL document CHEMBL5729293, “Inhibitors of KEAP1-Nrf2 protein-protein interaction” (2022)

assay: Fluorescence Based Assay: The details of the KEAP1 KELCH ThermoFluor® Assay Construct are as follows: Kelch domain of human KEAP 1 (321-624 aa) was used in the assay. The protein was expressed in E. coli with 6His tag that was cleaved prior to receipt for use.ThermoFluor® experiments were carried out using instruments owned by Janssen Research and Discovery, L.L.C. through its acquisition of 3-Dimensional Pharmaceuticals, Inc. 1,8-ANS (Invitrogen) was used as a fluorescent dye. Protein (KEAP Kelch) and compound solutions were dispensed into black 384-well polypropylene PCR microplates (Abgene) and overlayed with silicone oil (1 μL, Fluka, type DC 200) to prevent evaporation.Reference wells contained KEAP Kelch without compounds, and the assay conditions were as follows: 1.1 μM (0.037mg/mL) KEAP Kelch, 80 μM 1,8-ANS, 25 mM PIPES, pH 7.0, 100 mM NaCl, 0.002% Tween-20.

With `Cc1ccc([C@@H](c2ccn3c(C(F)(F)F)nnc3c2C)C(C)(C)C(=O)O)cc1CN1C[C@H]2CCCCN2c2ncc(C#N)cc2S1(=O)=O` as the molecule, how does the Kd read?
Its Kd is under 1 nM.

Which Kd does the source give for `Cc1ccc([C@@H](CC(=O)O)c2ccn3c(C(F)F)nnc3c2C)cc1CN1CC2(CC2)Oc2ncc(F)cc2S1(=O)=O` here?
Its Kd is under 1 nM.

Which Kd does the source give for `Cc1cnc2c(c1)S(=O)(=O)N(Cc1cc(C(c3ccn4c(C(F)F)nnc4c3C)C(C)(C)C(=O)O)ccc1C)CC1(CCOCC1)O2` (stereo not given) here?
Its Kd is under 1 nM.

For `Cc1ccc(C(CC(=O)O)c2ccn3c(C(F)(F)F)nnc3c2C)cc1CN1C[C@H]2CCCN2c2ccccc2S1(=O)=O` (stereo not given in full), which Kd is on record?
Its Kd is under 1 nM.

Which Kd does the source give for `Cc1ccc([C@H](CC(=O)O)c2ccn3c(C(F)(F)F)nnc3c2C)cc1CN1C[C@H]2COCCN2c2ncc(C#N)cc2S1(=O)=O` here?
The Kd was under 1 nM.

With `Cc1cnc2c(c1)S(=O)(=O)N(Cc1cc([C@H](c3ccn4c(C5CC5)nnc4c3C)C(C)(C)C(=O)O)ccc1C)CC1(COC1)O2` as the molecule, how does the Kd read?
The Kd was under 1 nM.

Which Kd does the source give for `Cc1c([C@@H](CC(=O)O)c2ccc(Cl)c(CN3CC4CCCCN4c4ncc(F)cc4S3(=O)=O)c2)ccn2c(C(F)(F)F)nnc12` (stereo not given in full) here?
Its Kd is under 1 nM.

For `Cc1ccc([C@@H](CC(=O)O)c2ccn3c(C(F)(F)F)nnc3c2C)nc1CN1CC2(CC2)Oc2ncc(F)cc2S1(=O)=O`, which Kd is on record?
The Kd was under 1 nM.

For `CCn1nnc2c(C)c([C@@H](CC(=O)O)c3ccc(C)c(CN4C[C@H]5CCCN5c5ccccc5S4(=O)=O)c3)ccc21`, which Kd is on record?
Its Kd is under 1 nM.

Which Kd does the source give for `Cc1ccc(C(CC(=O)O)c2ccn3c(C(F)(F)F)nnc3c2C)nc1CN1CC2CCCCN2c2ncc(C#N)cc2S1(=O)=O` (stereo not given) here?
The Kd was under 1 nM.
